Experimental data published in ChEMBL document CHEMBL1212796, “Ineffectiveness of tigecycline against persistent Borrelia burgdorferi” (2010).
In brackets after ≈: the same amount, converted by molar mass. Activity calls are given as the source filed them. No cut-off for these calls is given here.

Columns and labels:
[1] = test system: Borrelia burgdorferi; experiment: Antimicrobial activity against Borrelia burgdorferi B31; format: functional; conditions: Borreliella burgdorferi
[2] = test system: Borrelia burgdorferi; experiment: Antimicrobial activity against Borrelia burgdorferi N40; format: functional; conditions: Borreliella burgdorferi
[3] = Reduction in ospA gene expression in heart base tissue of SCID mouse transplanted with tibiotarsal and heart base tissue from Borrelia burgdorferi infected 12.5 mg/kg treated mouse; format: functional, organism-based; design: dose 12.5 mg/kg; conditions: Borreliella burgdorferi, at 12.5 mg/kg
[4] = Reduction in ospA gene expression assessed as gene copies in per mg of SCID mouse ventricular/quadriceps tissue receiving Borrelia burgdorferi infected nymphal ticks from 50 mg/kg treated mouse; format: functional, organism-based; design: dose 50 mg/kg; conditions: Borreliella burgdorferi; Cardiac ventricle; at 50 mg/kg
[5] = Reduction in arp gene expression in heart base tissue Borrelia burgdorferi infected mouse at 50 mg/kg; format: functional, organism-based; design: dose 50 mg/kg; conditions: Borreliella burgdorferi
[6] = Reduction in ospA gene expression in heart base tissue Borrelia burgdorferi infected mouse at 50 mg/kg; format: functional, organism-based; design: dose 50 mg/kg; conditions: Borreliella burgdorferi
[7] = Reduction in arp gene expression in heart base tissue Borrelia burgdorferi infected mouse at 12.5 mg/kg; format: functional, organism-based; design: dose 12.5 mg/kg; conditions: Borreliella burgdorferi
[8] = Reduction in beta-actin gene expression in heart base tissue Borrelia burgdorferi infected mouse at 50 mg/kg; format: functional, organism-based; design: dose 50 mg/kg; conditions: Borreliella burgdorferi
[9] = Reduction in flaB gene expression in heart base tissue Borrelia burgdorferi infected mouse at 12.5 mg/kg; format: functional, organism-based; design: dose 12.5 mg/kg; conditions: Borreliella burgdorferi
[10] = Reduction in ospA gene expression in heart base tissue of SCID mouse transplanted with tibiotarsal and heart base tissue from Borrelia burgdorferi infected 50 mg/kg treated mouse; format: functional, organism-based; design: dose 50 mg/kg; conditions: Borreliella burgdorferi, at 50 mg/kg
[11] = Reduction in flaB gene expression in heart base tissue Borrelia burgdorferi infected mouse at 50 mg/kg; format: functional, organism-based; design: dose 50 mg/kg; conditions: Borreliella burgdorferi
[12] = Reduction in beta-Actin gene expression in heart base tissue Borrelia burgdorferi infected mouse at 12.5 mg/kg; format: functional, organism-based; design: dose 12.5 mg/kg; conditions: Borreliella burgdorferi
[13] = Reduction in dbpA gene expression in heart base tissue Borrelia burgdorferi infected mouse at 50 mg/kg; format: functional, organism-based; design: dose 50 mg/kg; conditions: Borreliella burgdorferi
[14] = Reduction in oppA-2 gene expression in heart base tissue Borrelia burgdorferi infected mouse at 50 mg/kg; format: functional, organism-based; design: dose 50 mg/kg; conditions: Borreliella burgdorferi

Row | MIC [1] [µg/mL] | MIC [2] [µg/mL] | Compound | inhibition [3] | inhibition [4] | inhibition [5] | inhibition [6] | inhibition [7] | inhibition [8] | inhibition [9] | inhibition [10] | inhibition [11] | inhibition [12] | inhibition [13] | inhibition [14]
1 | 0.012 (≈ 0.0216 µM) | 0.048 (≈ 0.0866 µM) | CO/N=C(\C(=O)N[C@@H]1C(=O)N2C(C(=O)O)=C(CSc3nc(=O)c(O)nn3C)CS[C@H]12)c1csc(N)n1 [CEFTRIAXONE] | Active | – | – | – | – | – | – | – | – | – | – | –
2 | 0.39 | 0.78 | C[C@H]1c2cccc(O)c2C(=O)C2=C(O)[C@]3(O)C(=O)C(C(N)=O)=C(O)[C@@H](N(C)C)[C@@H]3[C@@H](O)[C@@H]21.O [DOXYCYCLINE] | – | – | – | – | – | – | – | – | – | – | – | –
3 | 0.006 (≈ 0.0102 µM) | 0.006 (≈ 0.0102 µM) | CN(C)c1cc(NC(=O)CNC(C)(C)C)c(O)c2c1C[C@H]1C[C@H]3[C@H](N(C)C)C(O)=C(C(N)=O)C(=O)[C@@]3(O)C(O)=C1C2=O [TIGECYCLINE] | – | Active | Active | Active | Active | inactive | Active | Active | Active | inactive | Active | inactive
4 | 0.024 (≈ 0.0718 µM) | 0.024 (≈ 0.0718 µM) | CC1(C)S[C@@H]2[C@H](NC(=O)Cc3ccccc3)C(=O)N2[C@H]1C(=O)O [PENICILLIN G] | – | – | – | – | – | – | – | – | – | – | – | –
